Paper PMC5417501, “Occurrence of urea-based soluble epoxide hydrolase inhibitors from the plants in the order Brassicales” (PLoS ONE, 2017)
≈ marks a conversion by molar mass, not a printed value. Where “and” joins values, the source holds several entries; their conditions need not be identical. Identical values can stand only once. Entries after “also recorded” stand apart in the source; their conditions may differ. Like-named read-outs stand apart in the source and are kept apart here.

Columns and labels:
[1] = test system: carrageenan-induced inflammatory pain; set-up: method as in Rose et al., (2010); details: rat, intraplantar, morphine 10 µg/paw, TPCU 10 ng/paw; ref Rose et al., (2010); cited from earlier work
[2] = value marked with footnote c, text of footnote not shown; cited from earlier work
rat sEH [3] = molecular target: T1, rat sEH (Rattus norvegicus, UniProt P80299); assay: sEH inhibition by fluorescent assay (CMNPC assay), rat enzyme; format: biochemical; details: for IC50: CMNPC substrate, recombinant enzyme
T1 construct: made in house; host or cells: insect High Five cells (recombinant baculovirus)
T1 sequence (P80299 1-554): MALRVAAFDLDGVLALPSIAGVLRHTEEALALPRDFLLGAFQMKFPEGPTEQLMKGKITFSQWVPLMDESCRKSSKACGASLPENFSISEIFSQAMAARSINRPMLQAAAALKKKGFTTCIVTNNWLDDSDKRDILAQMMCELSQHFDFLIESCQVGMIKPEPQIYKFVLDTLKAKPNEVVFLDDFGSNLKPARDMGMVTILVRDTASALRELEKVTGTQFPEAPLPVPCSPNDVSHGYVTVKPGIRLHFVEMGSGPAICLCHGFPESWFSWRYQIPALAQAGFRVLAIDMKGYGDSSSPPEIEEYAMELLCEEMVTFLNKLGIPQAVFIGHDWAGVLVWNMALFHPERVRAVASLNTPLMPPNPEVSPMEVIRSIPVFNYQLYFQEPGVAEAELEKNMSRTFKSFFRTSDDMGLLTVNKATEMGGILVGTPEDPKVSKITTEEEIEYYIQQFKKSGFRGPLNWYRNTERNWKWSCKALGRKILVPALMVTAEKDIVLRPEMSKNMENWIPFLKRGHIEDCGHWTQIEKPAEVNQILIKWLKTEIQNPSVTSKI
Experimental: (§1) Recombinant sEH was produced in insect High Five cells using recombinant baculovirus expression vectors, and purified by affinity chromatography as reported previously. The enzyme appeared as a single band (0.3 μg loading) with an estimated purity of more than 95% by Coomassie Brilliant Blue staining following SDS-PAGE separation. The final recombinant sEH preparations had no esterase or glutathione S-transferase activities, which interfere with the CMNPC assay as described below.
(§2) IC50 values were determined as described previously using cyano (2-methoxynaphthalen-6-yl) methyl trans-(3-phenyl-oxyran-2-yl) methyl carbonate (CMNPC) as a fluorescent substrate. Recombinant sEH (0.96 nM) was incubated with inhibitors for 5 min in 25 mM bis-Tris/HCl buffer (pH 7.0) containing 0.1 mg/mL of BSA at 30°C prior to substrate introduction ([S] = 5 μM). Activity was measured by determining the appearance of the 6-methoxy-2-naphthaldehyde with an excitation wavelength of 330 nm and an emission wavelength of 465 nm for 10 min.

[4] = Blood concentration during the pain assay after dermal treatment; format: in vivo; details: rat; for Concentration of demethoxy metabolite: after dermal treatment of compound 3 (6 mg/paw)
Experimental: (§3) Male Sprague-Dawley rats weighing 225–250 g were obtained from Charles River Laboratories and maintained in the UC Davis animal housing facility with ad libitum water and food on a 12 h/12 h light-dark cycle. Behavioral nociceptive testing was conducted by assessing mechanical withdrawal threshold using an electronic von Frey anesthesiometer apparatus (IITC, Woodland Hills, CA) as described previously. The analgesic effect of compound 3 was tested using the intraplantar carrageenan-induced local inflammatory pain model. Following baseline measurements, carrageenan (50 μL, 1% solution of carrageenan in ddH2O) was administered into the plantar area of one hind paw. At 4 h post administration of carrageenan, responses were measured, and immediately after these measurement, 3 (3% in PEG400/Vanicream™ (Pharmaceutical Specialties, Inc. Rochester, MN) = 3:7, 6 mg of compound/paw), the synthetic sEH inhibitor triclocarban (TCC, 3%), or the vehicle (200 μL of PEG400/Vanicream™) was administered onto the inflamed paw by topical application. The cream was thoroughly massaged across the entire hind paw surface over a 1–2 min period. Subsequently, the ability of these treatments to reduce the carrageenan-induced inflammatory pain was monitored over the course of 4 h.
(§4) Pharmacokinetic profiles of the inhibitors were determined by following the procedure described previously in literature with some modifications. Male Swiss Webster mice (7 weeks old, 24–30 g) were purchased from Charles River Laboratories. Inhibitors were dissolved in polyethylene glycol (average molecular weight: 300) to give a clear solution for oral administration. […] Blood (10 μL) was collected from the tail vein using a pipet tip rinsed with EDTA. The blood samples were prepared according to the methods detailed previously, and blood samples were analyzed by LC-MS/MS.

[5] = Pharmacokinetics after oral gavage (cassette dosing); format: in vivo; details: mice; for blood level of demethoxy metabolite after oral compound 3: compound 3 10 mg/kg oral, LOQ < 9.8 nM in blood; for oral availability, comparison: gavage, compound 3 and AEPU 10 mg/kg, TPPU 0.3 mg/kg
Experimental: as §4

human sEH = molecular target: T2, human sEH (Homo sapiens, UniProt P34913); assay: sEH inhibition by fluorescent assay (CMNPC assay), human enzyme; format: biochemical
T2 construct: made in house; host or cells: insect High Five cells (recombinant baculovirus)
T2 sequence (P34913 1-555): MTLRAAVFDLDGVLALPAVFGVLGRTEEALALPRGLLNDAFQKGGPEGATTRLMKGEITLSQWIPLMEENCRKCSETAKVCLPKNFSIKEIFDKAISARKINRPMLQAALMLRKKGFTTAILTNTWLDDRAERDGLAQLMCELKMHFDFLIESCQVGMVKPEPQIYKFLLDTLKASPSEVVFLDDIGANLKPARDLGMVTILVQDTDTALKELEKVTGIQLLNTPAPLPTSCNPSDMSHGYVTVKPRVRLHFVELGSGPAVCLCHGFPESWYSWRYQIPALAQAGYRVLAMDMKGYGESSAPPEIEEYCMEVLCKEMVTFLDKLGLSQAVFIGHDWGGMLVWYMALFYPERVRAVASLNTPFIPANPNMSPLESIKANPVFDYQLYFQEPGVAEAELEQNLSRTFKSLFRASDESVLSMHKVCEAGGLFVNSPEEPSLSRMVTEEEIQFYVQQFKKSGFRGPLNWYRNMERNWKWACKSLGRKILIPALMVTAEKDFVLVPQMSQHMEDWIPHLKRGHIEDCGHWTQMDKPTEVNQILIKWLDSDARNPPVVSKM
Experimental: as §1, §2

[6] = test system: carrageenan-induced inflammatory pain; assay: Carrageenan-induced inflammatory pain model, intraplantar administration; format: in vivo; details: rat, 10 µg/paw, p<0.05 vs. vehicle
Experimental: S8 Fig. Intraplantar administration of compound 3 effectively reduces carrageenan-induced inflammatory pain in rat. Administration of the inflammatory agent carrageenan (CAR) induces a stable hyperalgesic response for the duration of the experiment. Treatment with 3 (▲, 10 µg/paw, intraplantar), morphine (●, 10 µg/paw, intraplantar) or the potent synthetic sEH inhibitor (1-(1-(Cyclopropanecarbonyl) piperidin-4-yl)-3-(4- […]
pain levels (Kruskal-Wallis One Way ANOVA on Ranks, p≤0.001, Tukey’s post hoc test (compound 3 vs. vehicle, morphine vs. vehicle, TPCU vs. vehicle, p<0.05). Mean ± SE (n=6) of mechanical withdrawal threshold (% of naïve baseline) are shown. Vehicle (○), morphine (●), and TPCU (△) treatment data are from Rose et al., (2010).
(1 picture or pasted object on this page, not shown here)

[7] = test system: carrageenan-induced inflammatory pain; assay: Nociceptive assay, carrageenan-induced inflammatory pain model, topical application; format: in vivo; details: rat, 6 mg/paw in PEG400/Vanicream, monitored 4 h, p ≤ 0.001
Experimental: as §3
Data were analyzed using SigmaPlot 11.0 for Windows (Systat Software Inc., San Jose, CA). […]

Solubility = format: physicochemical
rat sEH [8] = molecular target: T1, rat sEH; set-up: method as in PMID 21381656; details: value marked with footnote e; cited from earlier work
[9] = Overnight incubation of thiourea in water at room temperature without papaya seed; format: physicochemical; details: 10 μM in water
[10] = S2 Table, unit inferred, read-out: hsEH IC50
[11] = CMNPC substrate, recombinant enzyme, read-out: Human sEH IC50

## O=C(Nc1ccc(OC(F)(F)F)cc1)NC1CCN(C(=O)C2CC2)CC1 [TPCU, 1-(1-(Cyclopropanecarbonyl)piperidin-4-yl)-3-(4-(trifluoromethoxy)phenyl) urea]
[1]
  carrageenan-induced inflammatory pain (mechanical withdrawal threshold): significantly reduced

## COc1ccc(CNC(=O)NCc2ccc(OC)cc2)cc1 [MMU, reference compound]
[2]
  solubility: 11 ± 2 µM (≈ 3.3 µg/mL)
Rat sEH [3]
  IC50: 218 nM

## O=C(NCc1cccc(O)c1)NCc1cccc(O)c1 [Compound 7, 1,3-Bis(3-hydroxybenzyl)urea]
[4]
  Concentration of demethoxy metabolite: below 200 nM
[5]
  blood level of demethoxy metabolite after oral compound 3: not detected
Human sEH; [10]
  IC50: 2700 nM
Rat sEH [3]
  IC50: 9600 nM

## CCC(=O)N1CCC(NC(=O)Nc2ccc(OC(F)(F)F)cc2)CC1 [TPPU, 1-trifluoromethoxyphenyl-3-(1-propionylpiperidin-4-yl) urea, reference compound]
[5]
  oral availability, comparison: much higher bioavailability than compound 3

## CN1CC[C@]23c4c5ccc(O)c4O[C@H]2[C@@H](O)C=C[C@H]3[C@H]1C5 [morphine]
[1]
  carrageenan-induced inflammatory pain (mechanical withdrawal threshold): significantly reduced

## COc1cccc(CNC(=O)NCc2cccc(OC)c2)c1 [Compound 3, 1,3-Bis (3-methoxybenzyl) urea]
[6]
  carrageenan-induced inflammatory pain (mechanical withdrawal threshold): significantly reduced
[7]
  carrageenan induced inflammatory pain (mechanical withdrawal threshold): significantly reduced carrageenan induced inflammatory pain; also recorded: significantly reduced pain levels
[4]; male, Sprague-Dawley, whole blood, topical, dermal 6 mg/paw, after 4 hours
  concentration at 4 h: > 3000 nM
[4]; dermal 6 mg/paw, at 30 min
  blood concentration at peak: higher than 40 μM
[4]; dermal 6 mg/paw, concluded from blood concentration
  permeability through skin: high permeability through skin
[5]; 10 mg/kg by gavage in PEG300
  absorption following oral administration: rapidly absorbed
[5]
  oral availability, comparison: higher than that of AEPU
[5]; oral 10 mg/kg, based on area under the curve values
  portion of compound 3 metabolized into compound 6: approximately 66%
Human sEH; [11]
  IC50: 222 nM and ~200 nM
Human sEH; human sEH
  less potent than MMU: approximately 2 fold
Solubility
  solubility higher than MMU: approximately 10 fold
Rat sEH [3]
  IC50: 155 nM

## O=C(NCc1ccccc1)NCc1ccccc1 [Compound 1, 1,3-Dibenzylurea]
Rat sEH [3]
  IC50: 385 nM

## COc1cccc(CNC(=O)NCc2cccc(O)c2)c1 [Compound 6, 1-(3-Hydroxybenzyl)-3-(3-methoxybenzyl) urea]
[4]
  Concentration of demethoxy metabolite: below 200 nM
[5]
  blood level of demethoxy metabolite after oral compound 3: detected at similar concentrations to compound 3
Human sEH; read-out: human sEH IC50
  IC50: 1300 nM
Rat sEH [3]
  IC50: 1300 nM

## S=C=NCCc1ccccc1 [Phenethyl isothiocyanate, reference compound]
Human sEH; [11]
  IC50: > 10000 nM
Rat sEH [3]
  IC50: > 10000 nM

## COc1ccc(CNC(=O)NCc2ccccc2)cc1 [BMU, reference compound]
Rat sEH [3]
  IC50: 182 nM

## O=C(Nc1ccc(Cl)cc1)Nc1ccc(Cl)c(Cl)c1 [TCC, triclocarban, reference compound]
[7]
  carrageenan induced inflammatory pain (mechanical withdrawal threshold): significantly reduced carrageenan induced inflammatory pain; also recorded: significantly reduced pain levels
Rat sEH [8]
  IC50: 27 nM
Rat sEH [3]
  more potent than compound 3 on rat sEH: approximately 6 fold

## S=C(NCc1ccccc1)NCc1ccccc1 [1,3-dibenzylthiourea]
[9]
  converted into compound 1: Approximately 10%

## O=C(NCCc1ccccc1)NCCc1ccccc1 [Compound 8, 1,3-Diphenethylurea]
Human sEH
  sEH inhibitory potency in words: moderate sEH inhibitory potency
Human sEH; [10]
  IC50: 233 nM
Solubility
  solubility: 33 ± 11 µM (≈ 8.86 µg/mL)
Rat sEH [3]
  IC50: 71 nM

## S=C(NCCc1ccccc1)NCCc1ccccc1 [Compound 9, 1,3-Diphenethylthiourea]
Human sEH; [11]
  IC50: 2400 nM
Human sEH; [10]
  IC50: 134 nM
Rat sEH [3]
  IC50: 3300 nM

## O=C(NCCc1ccccc1)NCCc1ccc(O)cc1 [Compound 10, 1-(4-Hydroxyphenethyl)-3-phenethylurea]
Human sEH
  sEH inhibitory potency in words: slightly higher inhibitory potency on sEH than the parent
Human sEH; [11]
  IC50: 134 nM
Human sEH; [10]
  IC50: 71.6 nM
Rat sEH [3]
  IC50: 129 nM

## O=S(=O)(O)ON=C(CCc1ccccc1)SC1OC(CO)C(O)C(O)C1O (stereo not shown) [Phenethyl glucosinolate, reference compound]
Human sEH; [11]
  IC50: > 10000 nM
Rat sEH [3]
  IC50: > 10000 nM

## COc1cccc(CNC(=O)NCc2ccccc2)c1 [Compound 2, 1-Benzyl-3-(3-methoxybenzyl) urea]
Human sEH
  lower potency on human sEH than compound 3: approximately 2 fold
Human sEH; [11]
  IC50: 534 nM
Rat sEH [3]
  IC50: 308 nM
